From US20200030347A1, “ANTIMICROBIAL COMPOSITIONS” (Matoke Holdings Limited, priority 2016, published 2020)

Columns and labels:
[1] = tested on: 48 h in vitro NTHi biofilms; assay: NTHi biofilm assay (cfu enumeration); format: cell-based, non-typeable Haemophilus influenza; details: 300/60 μg·ml; 2 hours
Protocol: Bacterial strains used in this study were isolated from nasopharyngeal swabs of children aged 4 years. NTHi was sub-cultured from frozen stocks onto Colombia agar with chocolated horse blood (Oxoid, UK) and incubated for 18 h at 37° C. and 5% CO2, following which colonies were resuspended in Brain Heart Infusion (BHI) broth supplemented with 10 μg/ml Hemin and 2 μg/ml NAD, and grown to mid-exponential phase for experiments. Pseudomonas aeruginosa PA01 and a clinical methicillin resistant Staphylococcus aureus isolate were subcultured onto Colombia blood agar plates (Oxoid, UK) and grown in non-supplemented BHI. […]
Mid-exponential planktonic cultures were used to inoculate individual wells of untreated 6-well polystyrene plates (˜1.0×10^8 planktonic bacteria per well; Corning Incorporated, USA). Cultures were incubated at 37° C. and 5% CO2 for 48 h, replacing spent media with fresh supplemented BHI (NTHi) at 24 h. Prior to treatment spent media was removed and biofilms washed twice with Hanks' balanced salt solution (HBSS; Gibco, UK). Biofilms were treated with SurgihoneyRO™ or Acacia (both prepared in HBSS) at final concentrations of 7 to 213 g/L. To assess the effect of pH biofilms were treated with HBSS adjusted to pH6.3 (the pH of 71 g/L SurgihoneyRO™ in HBSS). For adjuvant assays biofilms were treated with 300 μg/mL amoxicillin and 60 μg/mL clavulanic acid (Co-amoxiclav). […]

[2] = tested on: human nasal epithelial cell line; assay: Gene expression by quantitative real-time PCR in nasal epithelial cells; format: cell-based; details: 1 hour
Protocol: The fold change was calculated based on normalisation to the expression of the endogenous R-actin housekeeping gene. […] The dotted line for y=0 represents the untreated control group to which gene expression in the treatment groups were normalised and compared using an unpaired two tailed T test. *p≤0.05, ** […], *** p≤0.001, **** p≤0.0001; A human nasal epithelial cell line was used to investigate the immediate effect of SurgihoneyRO (also known as Surgihoney) on the integrity and function of the epithelium. In addition, a human mast cell line was used as a representative leukocyte to investigate immunological responses to SurgihoneyRO. Mast cells were selected because of their function as sentinel cells, being located just underneath the epithelium in tissues. Mast cells have close contact to the external environment, for example being found in the nasal mucosa, where they are ideally placed to participate in the early recognition of pathogens—by acting as immune effectors and modulatory cells with an essential role in linking innate and adaptive immunity in the host's defence against pathogens such as bacteria. […] In this case, we treated cells with an appropriate concentration range of pure hydrogen peroxide, from 0-400 uM.

[3] = tested on: human mast cell line (HMC-1); assay: Gene expression by quantitative real-time PCR in mast cells; format: cell-based; details: 1 hour
Protocol: Gene-expression profiles for Th17 related cytokines were analysed in HMC-1 treated with 10 g/L or 100 g/L of SurgihoneyRO for 5 minutes, 1 hour and 2 hours using quantitative real-time PCR. The fold change was calculated based on normalisation to the expression of the endogenous R-actin housekeeping gene. […] The dotted line for y=0 represents the untreated control group to which gene expression in the treatment groups were normalised and compared using an unpaired two tailed T test. *p≤0.05, ** […], *** p≤0.001, **** p≤0.0001;
A human nasal epithelial cell line was used to investigate the immediate effect of SurgihoneyRO (also known as Surgihoney) on the integrity and function of the epithelium. In addition, a human mast cell line was used as a representative leukocyte to investigate immunological responses to SurgihoneyRO. Mast cells were selected because of their function as sentinel cells, being located just underneath the epithelium in tissues.
We then studied the response of the mast cell line (HMC-1) to SurgihoneyRO treatment.
In this case, we treated cells with an appropriate concentration range of pure hydrogen peroxide, from 0-400 uM.

[4] = 20° C. and 1 atm; cited from earlier work

## co-amoxiclav
[1]
  effect on biofilm viability: no effect

## OO [hydrogen peroxide]
[2]; 40 μM
  IL22 expression, fold change: 0.90 fold
  IL23R expression, fold change: 0.45 fold
[2]; 200 μM
  IL22 expression, fold change: 1.42 fold
  IL23R expression, fold change: 1.20 fold
[2]; 400 μM
  GATA3 expression, fold increase: 0.92 fold
  IL10 expression, fold change: 4.63 fold
  IL22 expression, fold change: 4.55 fold
  IL23R expression, fold change: 1.87 fold
  MMP9 expression, fold change: 1.47 fold
  RORγC expression, mean increase: 14.57 fold
[3]; 40 μM
  IL22 expression, fold change: 0.60 fold
  IL23R expression, fold change: 0.47 fold
[3]; 200 μM
  IL22 expression, fold change: 1.25 fold
  IL23R expression, fold change: 0.58 fold
  MMP7 expression, fold increase: 3.07 fold
[3]; 400 μM
  IL22 expression, fold change: 1.81 fold
  IL23R expression, fold change: 1.05 fold
  MMP7 expression, fold increase: 3.31 fold
  RORγC expression, mean increase: 2.83 fold

## O=C(CO)[C@@H](O)[C@H](O)[C@H](O)CO [Fructose]
[4]
  solubility: about 375 g/100 g water
